A word on the IC50: it is the midpoint of a concentration-inhibition curve.

The test deals with T1, androgen receptor in MDA-MB453-MMTV clone 54-19 cells (Homo sapiens, UniProt P10275).
T1 sequence (P10275 1-920 Q868H): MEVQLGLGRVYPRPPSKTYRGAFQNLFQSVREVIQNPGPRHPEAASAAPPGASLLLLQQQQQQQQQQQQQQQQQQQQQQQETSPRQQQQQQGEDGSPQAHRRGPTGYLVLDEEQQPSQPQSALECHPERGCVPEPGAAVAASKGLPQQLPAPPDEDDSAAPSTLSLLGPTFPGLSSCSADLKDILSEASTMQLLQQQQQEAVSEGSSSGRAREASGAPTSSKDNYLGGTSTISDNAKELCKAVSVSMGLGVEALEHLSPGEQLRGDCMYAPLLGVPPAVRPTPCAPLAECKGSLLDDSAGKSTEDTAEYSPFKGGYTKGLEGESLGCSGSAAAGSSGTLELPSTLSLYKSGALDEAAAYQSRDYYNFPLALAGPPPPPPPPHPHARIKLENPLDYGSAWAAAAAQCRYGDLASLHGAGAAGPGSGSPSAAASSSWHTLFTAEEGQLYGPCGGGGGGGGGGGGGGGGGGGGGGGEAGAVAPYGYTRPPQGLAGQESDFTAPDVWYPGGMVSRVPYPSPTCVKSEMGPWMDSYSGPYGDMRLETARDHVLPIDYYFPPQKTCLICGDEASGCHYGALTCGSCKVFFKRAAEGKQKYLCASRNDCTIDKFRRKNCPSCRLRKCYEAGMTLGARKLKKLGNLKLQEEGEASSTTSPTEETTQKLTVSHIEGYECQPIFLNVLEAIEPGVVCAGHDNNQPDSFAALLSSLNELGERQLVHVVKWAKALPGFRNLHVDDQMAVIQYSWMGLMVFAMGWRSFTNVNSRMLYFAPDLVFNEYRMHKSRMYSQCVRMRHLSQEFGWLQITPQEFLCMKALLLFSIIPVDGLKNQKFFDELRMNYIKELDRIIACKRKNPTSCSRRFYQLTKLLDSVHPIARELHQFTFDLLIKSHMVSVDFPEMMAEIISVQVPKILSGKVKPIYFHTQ
In words: AR Antagonist Cell Assay (MMTV-luciferase reporter, DHT-induced). Format: cell-based. The settings on record: MDA-MB453-MMTV clone 54-19, 100 pM DHT, 17 hr; mean of multiple tests. Summed up:
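MDA-MB453 cells stably carrying an ARE-containing MMTV-luciferase reporter, in phenol red-free medium with 1% charcoal-treated serum, preincubated 30 min with compound (0.32-1000 nM), then stimulated with 100 pM DHT for 17 h at 37 °C. Luminescence read; percent inhibition of DHT fold induction.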
For orientation: Reporter assays use an easily measured gene product as a stand-in for the process of interest.
`CC(Oc1ccc(C#N)c(C(F)(F)F)c1)c1ccccc1` (racemic) [Example 1, 4-(1-Phenyl-ethoxy)-2-trifluoromethyl-benzonitrile] gave an IC50 of 0.09 µM. `CCCC(Oc1ccc(C#N)c(C(F)(F)F)c1)c1cccc(O)c1` (racemic) [Example 14, 4-[1-(3-Hydroxyphenyl)butoxy]-2-(trifluoromethyl)benzonitrile]: the IC50 turned out to be 0.036 µM. The compound `CCCC(Oc1ccc(C#N)c(C(F)(F)F)c1)c1cccc(O)c1` (single isomer, unassigned; (+)) [Example 15, (+)4-[1-(3-Hydroxyphenyl)butoxy]-2-(trifluoromethyl)benzonitrile] returned an IC50 of 0.102 µM. In turn, `CC(C)CC(Oc1ccc(C#N)c(C(F)(F)F)c1)c1cccc(O)c1` (single isomer, unassigned; (+)) [Example 21, (+)4-[1-(3-Hydroxyphenyl)-3-methylbutoxy]-2-(trifluoromethyl)benzonitrile] returned an IC50 of 0.079 µM.

The compound `CC(Oc1ccc(C#N)c(C(F)(F)F)c1)c1cncc(O)c1` (single isomer, unassigned; (+)) [Example 74, (+)4-[1-(5-Hydroxypyridin-3-yl)ethoxy]-2-(trifluoromethyl)benzonitrile] registered an IC50 of 0.111 µM. `CC(Oc1ccc(C#N)c(C(F)(F)F)c1)c1cccc(O)c1` (single isomer, unassigned; (-)) [Example 9, (−)-4-[1-(3-Hydroxyphenyl)ethoxy]-2-(trifluoromethyl)benzonitrile] gave an IC50 of 0.013 µM. `C=CCC(Oc1ccc(C#N)c(C(F)(F)F)c1)c1cccc(O)c1` (single isomer, unassigned; (-)) [Example 19, (−)4-{[1-(3-Hydroxyphenyl)but-3-enyl]oxy}-2-(trifluoromethyl)benzonitrile] yielded an IC50 of 0.034 µM.

Regarding `N#Cc1ccc(OCc2cccc(O)c2)cc1C(F)(F)F` [Example 6, 4-[(3-Hydroxybenzyl)oxy]-2-(trifluoromethyl)benzonitrile], 0.006 µM corresponded to half-maximal inhibition (IC50).

The compound `CCC(Oc1ccc(C#N)c(C(F)(F)F)c1)c1ccccn1` (stereo not drawn) [Example 79, 4-(1-Pyridin^−2-yl-propoxy)-2-trifluoromethyl-benzonitrile] registered an IC50 of 0.0271 µM. The value for `COc1cccc(C(C)Oc2ccc(C#N)c(C(F)(F)F)c2)n1` (stereo not drawn) [Example 80, 4-[1-(6-Methoxy-pyridin-2-yl)-ethoxy]-2-trifluoromethyl-benzonitrile] was 0.152 µM; that for `CC(C)CC(Oc1ccc(C#N)c(C(F)(F)F)c1)c1cccnc1` (stereo not drawn) [Example 88, 4-(3-Methyl-1-pyridin-3-yl-butoxy)-2-trifluoromethyl-benzonitrile] was 0.05 µM; that for `Cc1ccc(C(CC(C)C)Oc2ccc(C#N)c(C(F)(F)F)c2)cn1` (stereo not drawn) [Example 89, 4-[3-Methyl-1-(6-methyl-pyridin-3-yl)-butoxy]-2-trifluoromethyl-benzonitrile] was 0.056 µM.

For the origin of these results see patent publication US20090170886A1 (Pfizer Inc, priority 2005, published 2009).
